# Reference: ChEMBL document CHEMBL1201862, “PubChem BioAssay data set” (2004)
# Calls of active or inactive are those of the source.
# Columns and labels:
# [1] = tested on: HeLa; assay: ATP-based viability loss in HeLa cells – cell-based, CellTiter-Glo luminescence, cherry-pick samples, cytotoxicity control for MITF activator project, dose response (AID 540259); assay type: functional; details: Homo sapiens
# [2] = tested on: CHO; assay: CHO cell viability loss, potency – luminescence, cytotoxicity control for TLR9-MyD88 binding inhibitor project, dose response (AID 588339); assay type: functional, cell-based, hamster; details: Cricetulus griseus;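 further: CHO cells stably coexpressing TLR9 and MyD88 fusions from primary screen; compound exposure lasted 48 hours before viability readout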
# [3] = biological target: Heat shock protein HSP 90-alpha (Homo sapiens, UniProt P07900); assay type: functional, organism-based
# [4] = reduction of Shn3 3'UTR-driven luciferase in osteoblasts – cell-based, Clone20 osteoblasts, firefly luciferase, cherry-picked, dose response (AID 624132); assay type: functional;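 further: firefly luciferase luminescence from reporter carrying the Shn3 3'UTR in osteoblasts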
# [5] = non-specific 3'UTR reporter inhibition in Clone20-Shn3RL – cell-based, Renilla luciferase, cherry-picked, counter-screen for Shn3 inhibitor project, dose response (AID 624133); assay type: functional
# [6] = loss of viability in HepG2 cells – cell-based, CellTiter-Glo, cherry-picked, cytotoxicity control for Shn3 inhibitor project, dose response (AID 624134); assay type: functional
# [7] = microbe, parasite or virus in culture; assay type: functional; details: Mycobacterium tuberculosis
# [8] = tested on: INS1; assay: INS-1E survival protection against cytokine death – cell-based, luminescence, retest, dose response (AID 449756); assay type: functional; details: Rattus norvegicus;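 further: cell death triggered by IL-1 beta plus TNF-alpha plus IFN-gamma mixture; protective hits raise ATP signal compared with cytokine alone wells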
# [9] = biological target: Voltage-gated inwardly rectifying potassium channel KCNH2 (Homo sapiens, UniProt Q12809); details: Potency;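 further: confirmatory quantitative high-throughput screen measuring inhibition of hERG channel activity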
# [10] = biological target: T1, Hexokinase-1 (Homo sapiens, UniProt P19367); assay: SAR analysis of small molecule inhibitors of hexokinase domain containing I (HKDC1) in the hexokinase 1 selectivity assay. [Related pubchem assays (depositor defined):AID493160, AID493190]; assay type: functional
# T1 sequence (P19367 whole entry): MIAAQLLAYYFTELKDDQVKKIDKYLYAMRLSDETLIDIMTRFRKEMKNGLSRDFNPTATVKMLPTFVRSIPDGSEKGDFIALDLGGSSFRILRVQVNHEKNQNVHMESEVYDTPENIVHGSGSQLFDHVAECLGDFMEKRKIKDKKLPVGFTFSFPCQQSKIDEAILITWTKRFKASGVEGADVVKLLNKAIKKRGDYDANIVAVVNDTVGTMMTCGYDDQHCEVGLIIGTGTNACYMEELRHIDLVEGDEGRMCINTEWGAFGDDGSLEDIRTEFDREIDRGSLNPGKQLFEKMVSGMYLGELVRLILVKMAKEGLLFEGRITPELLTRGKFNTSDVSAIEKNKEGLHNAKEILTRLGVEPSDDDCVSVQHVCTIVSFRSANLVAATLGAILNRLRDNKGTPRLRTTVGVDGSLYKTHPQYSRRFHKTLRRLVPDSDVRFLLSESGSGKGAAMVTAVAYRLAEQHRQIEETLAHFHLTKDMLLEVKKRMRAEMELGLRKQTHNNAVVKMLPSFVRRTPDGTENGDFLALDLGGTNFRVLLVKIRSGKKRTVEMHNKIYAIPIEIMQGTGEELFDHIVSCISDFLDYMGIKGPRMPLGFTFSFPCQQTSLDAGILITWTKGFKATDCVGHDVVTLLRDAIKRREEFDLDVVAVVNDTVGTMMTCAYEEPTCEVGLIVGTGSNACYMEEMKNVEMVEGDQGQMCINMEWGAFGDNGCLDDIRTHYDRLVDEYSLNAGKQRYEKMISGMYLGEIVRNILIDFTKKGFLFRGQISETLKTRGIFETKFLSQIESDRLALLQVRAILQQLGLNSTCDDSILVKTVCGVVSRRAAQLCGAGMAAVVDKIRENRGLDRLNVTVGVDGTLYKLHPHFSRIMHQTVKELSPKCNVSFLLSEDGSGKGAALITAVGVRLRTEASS
# [11] = biological target: T2, Hexokinase HKDC1 (Homo sapiens, UniProt Q2TB90); assay: SAR analysis of small molecule inhibitors of hexokinase domain containing I (HKDC1). [Related pubchem assays (depositor defined):AID493160, AID493190]; assay type: functional
# T2 sequence (Q2TB90 whole entry): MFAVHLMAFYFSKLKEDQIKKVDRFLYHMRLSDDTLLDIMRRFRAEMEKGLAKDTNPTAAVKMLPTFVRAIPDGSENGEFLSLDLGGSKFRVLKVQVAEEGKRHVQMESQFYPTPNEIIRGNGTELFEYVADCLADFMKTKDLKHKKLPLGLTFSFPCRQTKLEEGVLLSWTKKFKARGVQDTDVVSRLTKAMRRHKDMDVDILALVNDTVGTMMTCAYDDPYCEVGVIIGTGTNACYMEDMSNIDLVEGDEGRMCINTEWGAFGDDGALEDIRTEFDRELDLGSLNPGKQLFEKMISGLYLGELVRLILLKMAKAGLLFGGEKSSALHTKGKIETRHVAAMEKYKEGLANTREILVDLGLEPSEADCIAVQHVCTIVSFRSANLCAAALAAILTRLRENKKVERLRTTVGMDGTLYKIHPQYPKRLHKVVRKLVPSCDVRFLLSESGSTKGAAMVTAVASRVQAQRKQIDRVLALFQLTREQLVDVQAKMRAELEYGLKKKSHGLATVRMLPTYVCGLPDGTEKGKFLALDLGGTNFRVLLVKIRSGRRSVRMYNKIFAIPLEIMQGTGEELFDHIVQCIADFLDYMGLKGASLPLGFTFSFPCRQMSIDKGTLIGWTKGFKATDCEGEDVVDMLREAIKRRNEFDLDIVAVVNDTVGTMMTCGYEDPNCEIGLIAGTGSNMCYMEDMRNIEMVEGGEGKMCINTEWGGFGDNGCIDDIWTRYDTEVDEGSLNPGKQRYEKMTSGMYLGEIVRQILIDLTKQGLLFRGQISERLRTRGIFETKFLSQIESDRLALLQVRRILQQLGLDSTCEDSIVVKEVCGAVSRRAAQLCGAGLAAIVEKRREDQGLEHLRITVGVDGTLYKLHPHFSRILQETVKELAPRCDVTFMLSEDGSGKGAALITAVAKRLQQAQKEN
# [12] = tested on: Candida albicans; assay: resistant Candida growth with fluconazole co-treatment – CaCi-8 strain, Alamar Blue, dry powder, set 2, dose response (AID 488909); assay type: functional, organism-based
# [13] = tested on: Candida albicans; assay: fluconazole-resistant Candida strain growth inhibitors – CaCi-8 strain, dry powder, set 4, dose response (AID 488950); assay type: functional, organism-based
# [14] = tested on: Candida albicans; assay: C. albicans growth inhibition with fluconazole – CaCi-2 strain, Alamar Blue, dry powder, set 4, dose response (AID 488943); assay type: functional, organism-based
# Voltage-gated inwardly rectifying potassium channel KCNH2, sequence (Q12809 whole entry, the tested form may be a part): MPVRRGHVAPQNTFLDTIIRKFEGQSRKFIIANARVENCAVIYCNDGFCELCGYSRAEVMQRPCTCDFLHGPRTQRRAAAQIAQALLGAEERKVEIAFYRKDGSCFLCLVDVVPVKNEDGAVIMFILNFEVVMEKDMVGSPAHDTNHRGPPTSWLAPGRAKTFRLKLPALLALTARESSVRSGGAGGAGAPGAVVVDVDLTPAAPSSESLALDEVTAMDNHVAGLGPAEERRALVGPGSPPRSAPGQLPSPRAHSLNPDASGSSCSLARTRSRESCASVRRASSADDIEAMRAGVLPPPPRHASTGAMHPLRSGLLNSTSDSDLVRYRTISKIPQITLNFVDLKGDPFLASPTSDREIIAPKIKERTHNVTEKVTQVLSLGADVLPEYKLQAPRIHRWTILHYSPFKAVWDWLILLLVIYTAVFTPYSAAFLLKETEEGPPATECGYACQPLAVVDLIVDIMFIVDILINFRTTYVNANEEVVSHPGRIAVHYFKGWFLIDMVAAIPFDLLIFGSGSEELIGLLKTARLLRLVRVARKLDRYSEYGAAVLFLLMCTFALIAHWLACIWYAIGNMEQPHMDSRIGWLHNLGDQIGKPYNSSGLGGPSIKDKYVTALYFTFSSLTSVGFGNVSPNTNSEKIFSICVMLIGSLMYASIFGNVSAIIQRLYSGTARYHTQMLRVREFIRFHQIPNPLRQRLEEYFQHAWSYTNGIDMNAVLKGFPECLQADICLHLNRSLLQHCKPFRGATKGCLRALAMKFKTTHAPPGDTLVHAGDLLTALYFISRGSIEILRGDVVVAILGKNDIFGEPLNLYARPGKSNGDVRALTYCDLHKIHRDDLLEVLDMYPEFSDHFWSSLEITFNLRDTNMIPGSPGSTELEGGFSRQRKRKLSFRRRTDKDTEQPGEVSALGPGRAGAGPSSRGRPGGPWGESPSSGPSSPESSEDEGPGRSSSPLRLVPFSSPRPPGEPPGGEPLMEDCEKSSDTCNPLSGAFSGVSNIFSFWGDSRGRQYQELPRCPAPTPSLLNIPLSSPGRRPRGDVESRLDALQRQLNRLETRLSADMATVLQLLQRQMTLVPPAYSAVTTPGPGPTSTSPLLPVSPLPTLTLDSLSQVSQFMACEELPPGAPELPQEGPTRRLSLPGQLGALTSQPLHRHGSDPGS
smiles,measurement,setting,value
COc1nc(C)ccc1-c1noc(-c2ccncc2)n1,AC50,[1],40 µM (active)
N=C(NOC(=O)C12CC3CC(CC(C3)C1)C2)c1ccccn1,AC50,[1],27.5 µM (active)
Cc1ccc(-n2c(Cl)c(Cl)nc(Cl)c2=O)cc1,IC50,[2],1.39 µM (active)
same,AC50,[3],1.38 µM (active)
same,AC50,[4],1.77 µM (active)
same,AC50,[5],3.58 µM (active)
same,AC50,[6],8.89 µM (active)
same,CC50,[7],39.1 µM (active)
same,AC50,[8],4.43 µM (active)
Cc1ccccc1C(N)=O,AC50,[9],35.5 µM (inconclusive)
O=c1c2ccccc2nc(/C=C/c2cccnc2)n1Cc1cccc(Cl)c1,IC50,[10],> 80 µM (inactive)
same,IC50,[11],> 80 µM (inactive)
Cc1cc(N2CCN(C(=O)c3ccc(Cl)cc3)CC2)c2ccc(F)cc2n1,AC50,[12],49.3 µM (active)
same,AC50,[13],14.4 µM (active)
same,AC50,[14],15.8 µM (active)
Cc1ccccc1N1C(=O)c2cc(S(N)(=O)=O)c(Cl)cc2NC1C (stereo unspecified) [METOLAZONE],AC50,[9],0.112 µM (inconclusive)
